Experimental data published in patent publication US20240407315A1, “PLANT DISEASE […] METHOD, PLANT DISEASE […] DEVICE, AND PLANT DISEASE […] AGENT” (TOHOKU UNIVERSITY, priority 2021, published 2024).

Assays:
Arabidopsis thaliana = experiment: Observation of leaf damage after gas exposure; type: in vivo; details: immediately after exposure and the next day
[1] = test system: cucumber mosaic virus (CMV) Macula lutea strain; experiment: Suppression of viral growth: ELISA of virus coat protein in inoculated leaves; type: in vivo; details: Arabidopsis thaliana, 20 seconds once a day for 3 days, about 200 ppm or lower; inoculated 24 hours after last exposure; measured 2 days after inoculation
From the text: A plant was exposed to dinitrogen pentoxide using the plant disease resistance inducing device 10 illustrated in FIG. 1, and subjected to an experiment for examining an effect of suppressing viral growth. In the experiment, Arabidopsis thaliana at 5 week of seeding was exposed to dinitrogen pentoxide once a day for 3 days. In each exposure, Arabidopsis thaliana was exposed to dinitrogen pentoxide from a distance of 5 cm for 20 seconds. A concentration of dinitrogen pentoxide in the gas for the exposure was set to about 200 ppm or lower. Twenty-four hours after the last exposure, leaves that had fully developed were inoculated with a cucumber mosaic virus (CMV) Macula lutea strain by a friction inoculation method. Two days after the CMV inoculation, viral loads in the inoculated leaves were quantitatively measured by Enzyme-Linked Immuno Sorbent Assay (ELISA) method using an anti-CMV coat protein antibody.
For comparison, virus loads of Arabidopsis thaliana exposed to dry air and inoculated with CMV under the same condition, and Arabidopsis thaliana exposed to dry air and not inoculated with CMV (Mock) under the same condition were also quantitatively measured, and the results are presented in FIG. 6. For the experiment, six independent individuals were used, and the mean values and standard deviations of the six individuals are presented in FIG. 6. […]

[2] = test system: PDF1.2, ORA59, PAD3, CYP71A12, NIT2, and WRKY26; experiment: qRT-PCR time course of marker gene expression relative to ACT2 gene; type: in vivo, Arabidopsis thaliana; details: single 20 seconds exposure from 5 cm
Method: Subsequently, the expression of each of the selected genes was analyzed by qRT-PCR. In the qRT-PCR, Arabidopsis thaliana at 5 week of seeding was exposed to dinitrogen pentoxide from a distance of 5 cm for 20 seconds. The dinitrogen pentoxide exposure was conducted only once. The whole above-ground part was sampled 1, 3, 6, 12, 24, and 48 hours after the exposure, from which the total RNA was extracted and then subjected to qRT-PCR. Using ACT2 gene as a control for endogenous genes, an expression level of each gene was determined as a value relative to the ACT2 gene expression level (Relative expression to ACT2 gene).
For comparison, time-dependent changes in the expression levels of each gene in Arabidopsis thaliana exposed to dry air under the same condition were also determined, and the results are presented in FIG. 5. For the experiment, three independent individuals were used, and the mean values and standard deviations of the three individuals are presented in FIG. 5. The same experiment was conducted twice independently, and the same results were obtained.

[3] = test system: Ca^2+ signals (calcium ion response); experiment: Live GFP fluorescence imaging of Ca^2+ signals in GCaMP-expressing plants after gas exposure; type: in vivo, Arabidopsis thaliana; details: about 200 ppm or lower, 10 seconds
From the text: An experiment was implemented, in which a plant was exposed to dinitrogen pentoxide to confirm induction of Ca^2+ signals (calcium ion response) as information of injuries similar to insect damages or physical injuries, using the plant disease resistance inducing device 10 illustrated in FIG. 1.
First, Ca^2+ signals that had appeared by exposing the whole body of Arabidopsis thaliana to dinitrogen pentoxide were observed. In the experiment, the concentration of dinitrogen pentoxide in the gas for the exposure was set to about 200 ppm or lower, and the exposure time was set to 10 seconds. For comparison, Ca^2+ signals that had appeared by exposing the whole body of Arabidopsis thaliana to dry air were also observed under the same condition. FIG. 2 presents states of Arabidopsis thaliana before the exposure, and states of the Ca^2+ signals 60 seconds after the termination of the exposure.
Next, Ca^2+ signals that had appeared by exposing one leaf of Arabidopsis thaliana to dinitrogen pentoxide were observed. In the experiment, only one leaf of Arabidopsis thaliana (leaf surrounded by dotted line in FIG. 3(a)) was exposed to dinitrogen pentoxide. The concentration of dinitrogen pentoxide in the gas for the exposure was set to about 200 ppm or lower, and the exposure time was set to 10 seconds.

[4] = test system: PDF1.2, ORA59, PAD3, CYP71A12, NIT2, and WRKY26; experiment: RNA sequencing (RNA-seq) gene expression analysis after gas exposure; type: in vivo, Arabidopsis thaliana
Method: A plant was exposed to dinitrogen pentoxide using the plant disease resistance inducing device 10 illustrated in FIG. 1, and a gene expression was analyzed by RNA sequencing (RNA-seq) and quantitative real-time PCR (qRT-PCR). In the RNA-seq analysis, Arabidopsis thaliana at 5 week of seeding was exposed to dinitrogen pentoxide once a day for 3 days. In each exposure, Arabidopsis thaliana was exposed to dinitrogen pentoxide from a distance of 5 cm for 20 seconds. A concentration of dinitrogen pentoxide in the gas for the exposure was set to about 200 ppm or lower. Twenty-four hours after the last exposure, leaves that had fully developed were collected, from which the total RNA was extracted, followed by RNA-seq analysis. For comparison, as a control plot, a leaf exposed to dry air under the same condition was also subjected to the RNA-seq analysis.
Genes with expression levels not less than twice as high as that of the control plot, induced by the dinitrogen pentoxide exposure, and genes with reduced expression levels not more than half as high as that of the control plot were extracted. As a result, 1304 genes with twice or more of induced expression levels, and 1209 genes with expression levels reduced to half or less were found.
Based on the result of the RNA-seq, six genes: PDF1.2, ORA59, PAD3, CYP71A12, NIT2, and WRKY26, were selected as candidate marker genes for the dinitrogen pentoxide exposure. Herein, PDF1.2 is an antimicrobial peptide gene and is often used as a marker gene for jasmonic acid and ethylene. ORA59 is a gene related to regulation of PDF1.2 expression. PAD3 is a gene related to biosynthesis of an antimicrobial substance camalexin, which is synthesized and induced by jasmonic acid. CYP71A12 is a gene related to a tryptophan metabolism at an upstream of PAD3. NIT2 is a gene related to biosynthesis of auxin that is another plant hormone derived from tryptophan. WRKY26 is a gene which, as is known, functionally overlaps with a transcription factor WRKY33 that regulates jasmonic acid signals.

[5] = 20 seconds once a day for 3 days, about 200 ppm or lower, leaves 24 hours after last exposure

Row | SMILES | state of leaves after exposure (Arabidopsis thaliana) | CMV growth (accumulation of virus coat protein) compared to dry air exposure [1] | time after exposure from which ODR59 expression was induced [2] | time after exposure from which PDF1.2 expression was induced [2] | time of peak of transiently induced NIT2 expression [2] | time until which high ODR59 expression level was maintained [2] | time until which high PDF1.2 expression level was maintained [2] | time to activation of the Ca^2+ signals in the leaf directly exposed ([3]; one leaf exposed) | spread of Ca^2+ signals after exposure of one leaf ([3]; one leaf exposed, observed up to 6 minutes) | generation of Ca^2+ signals over the plant body ([3]; whole body exposed) | Ca^2+ signals after whole-body exposure ([3]; whole body exposed, observed 60 seconds after exposure, dry air gave no signals) | gene ontology analysis result ([4]; 20 seconds once a day for 3 days, about 200 ppm or lower) | number of genes with expression levels reduced to half or less vs control plot [4, 5] | number of genes with twice or more of induced expression levels vs control plot [4, 5] | At-N2O5-_TPM ([4]; gene CYP71A12, control 0.000000) | At-N2O5-_TPM ([4]; gene NIT2, control 0.000000) | At-N2O5-_TPM ([4]; gene ORA59, control 0.074135) | At-N2O5-_TPM ([4]; gene PAD3, control 0.312642) | At-N2O5-_TPM ([4]; gene WRKY26, control 0.035706)
1 | O=[N+]([O-])O[N+](=O)[O-] [dinitrogen pentoxide] | not to curl up but to grow without withering | significantly suppressed | 1 h | 6 h | 12 h | 48 h | at least 48 hours | about 20 seconds | spread to all leaves in the whole body through sieve tubes | slowly generated over the whole body | Ca^2+ signals were observed | jasmonic acid signals were activated | 1209 genes | 1304 genes | 0.797 TPM | 1.917 TPM | 2.341 TPM | 1.293 TPM | 0.7565 TPM
2 | O=[O+][O-] [ozone, reference compound] | curl up immediately after the ozone exposure and wither the next day |  |  |  |  |  |  |  |  |  |  |  |  |  |  |  |  |  | 
